DBAASP
Values after ≈ are worked out from the molar mass of the structure shown.

Experiments:
Assay in all cases: ≥ marks a high value that may be exact or a test limit, other limits are often not marked, values filed in µg/mL are converted to µM
[1] = system: Escherichia coli IFO 3301
[2] = system: Bacillus subtilis IFO 3336
[3] = system: Staphylococcus aureus KCTC 1621
[4] = system: Bacillus subtilis KCTC 3068
[5] = system: Pseudomonas aeruginosa CCARM 2095
[6] = system: Salmonella typhimurium KCTC 1926
[7] = system: Pseudomonas aeruginosa CCARM 2109
[8] = system: Pseudomonas aeruginosa KCTC 1637
[9] = system: Staphylococcus aureus CCARM 3543
[10] = system: Escherichia coli KCTC 1682
[11] = system: Staphylococcus epidermidis KCTC 1917
[12] = system: Staphylococcus aureus CCARM 3001
[13] = system: Streptococcus gordonii ATCC 10558
[14] = system: Streptococcus mutans UA159
[15] = system: Streptococcus mutans ATCC 104495
[16] = system: Streptococcus mutans T8
[17] = system: Streptococcus sanguinis ATCC 10556
[18] = system: Streptococcus sanguinis NY101
[19] = system: Streptococcus mutans UA140
[20] = system: Streptococcus gordonii DL1
[21] = system: Streptococcus salivarius K12
[22] = system: Streptococcus mutans ATCC 25175
[23] = system: Streptococcus mutans comD

NC(N)=NCCC[C@H](NC(=O)[C@H](Cc1cnc[nH]1)NC(=O)[C@H](CCCN=C(N)N)NC(=O)[C@H](Cc1cnc[nH]1)NC(=O)[C@H](CCCN=C(N)N)NC(=O)[C@H](Cc1cnc[nH]1)NC(=O)[C@H](CCCN=C(N)N)NC(=O)[C@H](Cc1cnc[nH]1)NC(=O)[C@H](CCCN=C(N)N)NC(=O)[C@@H](N)Cc1cnc[nH]1)C(=O)O [HRHRHRHRHR]
MIC [1]: 6.74 µM (≈ 10 µg/mL)
MIC [2]: 6.74 µM (≈ 10 µg/mL)

CC(C)C[C@H](NC(=O)[C@H](CC(C)C)NC(=O)[C@H](Cc1c[nH]c2ccccc12)NC(=O)[C@H](CCCCN)NC(=O)[C@H](CC(C)C)NC(=O)[C@H](Cc1c[nH]c2ccccc12)NC(=O)[C@H](CC(C)C)NC(=O)[C@H](CC(C)C)NC(=O)[C@H](Cc1c[nH]c2ccccc12)NC(=O)[C@H](CC(C)C)NC(=O)[C@@H](N)CCCCN)C(N)=O [KLWLLWLKWLL]
MIC [3]: ≥ 32 µM
MIC [4]: ≥ 32 µM
MIC [5]: ≥ 64 µM
MIC [6]: ≥ 32 µM
MIC [7]: ≥ 64 µM
MIC [8]: 16 µM (≈ 24.2 µg/mL)
MIC [9]: ≥ 32 µM
MIC [10]: ≥ 32 µM
MIC [11]: ≥ 32 µM
MIC [12]: ≥ 64 µM

CC[C@H](C)[C@H](NC(=O)CNC(=O)[C@H](CCCCN)NC(=O)[C@H](CCCN=C(N)N)NC(=O)[C@@H](NC(=O)[C@@H](NC(=O)[C@H](CCCN=C(N)N)NC(=O)[C@H](CC(C)C)NC(=O)[C@H](CC(N)=O)NC(=O)[C@@H](N)CCCCN)[C@@H](C)CC)[C@@H](C)CC)C(=O)N[C@@H](Cc1cnc[nH]1)C(=O)N[C@H](C(=O)N[C@H](C(=O)N[C@@H](CCCCN)C(=O)N[C@@H](CCCCN)C(=O)N[C@@H](Cc1ccc(O)cc1)C(N)=O)[C@@H](C)CC)[C@@H](C)CC [KNLRIIRKGIHIIKKY]
MIC [13]: ≥ 50 µM
MIC [14]: 12.1 µM (≈ 24.1 µg/mL)
MIC [15]: ≥ 33.3 µM
MIC [16]: 14.2 µM (≈ 28.3 µg/mL)
MIC [17]: ≥ 50 µM
MIC [18]: ≥ 33.6 µM
MIC [19]: ≥ 33.3 µM
MIC [20]: ≥ 41.3 µM
MIC [21]: 16.7 µM (≈ 33.3 µg/mL)
MIC [22]: 14.8 µM (≈ 29.5 µg/mL)
MIC [23]: 15.3 µM (≈ 30.5 µg/mL)
